Assay results taken from ChEMBL document CHEMBL3044710, “Nematodetoxic aurovertin-type metabolites from a root-knot nematode parasitic fungus Pochonia chlamydosporia” (2010).
≈ marks a conversion by molar mass, not a printed value. Calls of active or inactive are those of the source. No cut-off for these calls is given here.

What was measured:
[1] = system: Meloidogyne incognita; assay: Nematodexic activity against eggs of Meloidogyne incognita (root-knot nematode) assessed as mean corrected egg hatching inhibition rate at 25 to 400 ug/ml at 28 degC measured after 7 to 13 days by normal binocular microscopic analysis; type: functional
[2] = system: Panagrellus redivivus; assay: Nematodexic activity against mixed juvenile and adult stages of Panagrellus redivivus assessed as mean corrected mortality rate at 28 degC measured after 48 hr by normal binocular microscopic analysis; type: functional
[3] = system: Panagrellus redivivus; assay: Nematodexic activity against mixed juvenile and adult stages of Panagrellus redivivus assessed as disruption of internal structure, vacuole formation and residual empty somatocysts in the dead worm at 28 degC measured after 48 hr by normal binocular microscopic analysis; type: functional, organism-based
[4] = system: Meloidogyne incognita; assay: Nematodexic activity against Meloidogyne incognita (root-knot nematode) assessed as mortality at 500 mg/l after 96 hr; type: functional

SMILES	inhibition (INH) [1]	LC50 [2] [µg/mL]	Activity [3]	mortality at 500 µg/mL [4] [%]
COc1cc(=O)oc(/C=C/C=C/C=C/[C@@H]2O[C@@]3(C)C(C)O[C@](C)([C@H]2O)[C@@H]3O)c1C (some centres undefined)	<=5%			
CCC1O[C@]2(C)[C@@H](O)[C@H](/C=C/C=C/C=C/c3oc(=O)cc(OC)c3C)O[C@]1(C)[C@H]2O (some centres undefined)	<=5%			
COc1cc(=O)oc(/C=C/C=C/C=C/C2OC3(C)C([C@H](C)O)OC(C)(C2O)C3OC(C)=O)c1C (some centres undefined) [AUROVERTIN D]	<=5%	41.7 (≈ 87.5 µM)	Active	
COc1cc(=O)oc(/C=C/C=C/C=C/C2OC3(C)C([C@H](C)O)OC(C)(C2O)C3O)c1C (some centres undefined) [AUROVERTIN F]	<=5%	88.6 (≈ 204 µM)	Active	
C/C=C/[C@@H]1OC(=O)C=C[C@@H]1O [PHOMALACTONE]				84
